Measurements: patent US9844521B2, “Pharmaceutical composition comprising ginger extract or shogaol” (UNIVERSITY-INDUSTRY COOPERATION GROUP OF KYUNG HEE …, priority 2008, dated 2017)

What was measured:
C6 cells = assay: Nerve growth factor secretion induction in C6 cells (NGF measurement kit); format: cell-based, mouse; conditions: conditioned media of C6 cells, mean±standard deviation
Method: This test was performed using a glioma C6 cell line of […] which is known as a cell line that secretes a nerve growth factor (NGF), and a pheochromocytoma PC12 cell line of […] which is known as a cell line that grows neurite with respect to an NGF in a similar way as a neuron. C6 cells and PC12 cells were obtained from Korean Cell Line Bank (KCLB Nos. 10107 and 21721, respectively). C6 cells were cultured using DMEM media (Gibco BRL, USA) supplemented with 3.4 g/L of sodium bicarbonate (NaHCO3), 10% fetal bovine serum, and 1% penicillin-streptomycin antibiotics (10000 U/ml), and PC12 cells were cultured using RPMI1640 medium (Gibco BRL, USA) supplemented with 2.0 g/L of sodium bicarbonate, 10% horse serum, 5% fetal bovine serum, and 1% penicillin-streptomycin antibiotics (10000 U/ml). The fetal bovine serum and the horse serum were inactivated at a temperature of 55[…] for 30 minutes before use, and all of the cells were cultured in a cell culture vessel with a humidity of 70% at a temperature of 37[…] to which 5% carbon dioxide was supplied. Regarding the PC12 cells, the cells were cultured in a culture vessel that was surface-coated with poly-D-lysine (Sigma) diluted with 50 μg/ml of a PBS buffer solution (pH 7.2) for 1 hour and then washed three times with a PBS buffer solution. Shogaol used was obtained from WAKO Company (Japan).
C6 cells attached to a 100 mm culture vessel were separated from the culture vessel by using 0.25% Trypsin-EDTA (Gibco BRL, USA), and then 10 ml of fresh medium was added to the cells to prepare a cell suspension. Then, the number of viable cells was counted and calculated by using a cell number counter. The cells were divided based on the counted cell number such that 2×10^6 cells were contained in a 100 mm culture dish. After 24 hours of cultivation, the used media was removed and replaced with 10 ml of a DMEM medium containing 2% fetal bovine serum, to which 100 ug/ml of each of the ethanol extract, the n-hexane fraction, the ethyl acetate fraction, the n-butanol fraction, and the water fraction prepared according to Example 1 was added. After 24 hours of cultivation, the respective media were obtained. The obtained media were centrifuged at a rate of 1500 rpm for 10 minutes and then a supernatant was collected, and these media (conditioned media) were used to treat PC12 cells.
The C6 cells were divided and treated with 0.1, 1, 5, 10, and 20 μM of shogaol in the same manner as in Experimental Example 1-1 to prepare conditioned media.
A nerve growth factor secreted from C6 cells by shogaol was quantified by treating a nerve growth factor measurement kit (DY556, R&D system, USA) with the conditioned media. In order to identify an effect of shogaol on nerve growth factor secretion induction, a nerve growth factor in the conditioned media prepared by culturing C6 cells after the cells were treated with shogaol was quantified and the results are shown in FIG. 2.

PC12 cells = assay: Neurite outgrowth of PC12 cells treated with conditioned media of C6 cells; format: cell-based, mouse; conditions: 20 μM in C6 conditioned media, microscope, fourth day after treatment
Method: This test was performed using a glioma C6 cell line of […] which is known as a cell line that secretes a nerve growth factor (NGF), and a pheochromocytoma PC12 cell line of […] which is known as a cell line that grows neurite with respect to an NGF in a similar way as a neuron. C6 cells and PC12 cells were obtained from Korean Cell Line Bank (KCLB Nos. 10107 and 21721, respectively). C6 cells were cultured using DMEM media (Gibco BRL, USA) supplemented with 3.4 g/L of sodium bicarbonate (NaHCO3), 10% fetal bovine serum, and 1% penicillin-streptomycin antibiotics (10000 U/ml), and PC12 cells were cultured using RPMI1640 medium (Gibco BRL, USA) supplemented with 2.0 g/L of sodium bicarbonate, 10% horse serum, 5% fetal bovine serum, and 1% penicillin-streptomycin antibiotics (10000 U/ml). […]
C6 cells attached to a 100 mm culture vessel were separated from the culture vessel by using 0.25% Trypsin-EDTA (Gibco BRL, USA), and then 10 ml of fresh medium was added to the cells to prepare a cell suspension. Then, the number of viable cells was counted and calculated by using a cell number counter. The cells were divided based on the counted cell number such that 2×10^6 cells were contained in a 100 mm culture dish. […]

SD rats = assay: Acute toxicity test; conditions: 0.1 mg/10 ml/kg to 5000 mg/10 ml/kg, 2 weeks
E. coli WP2 uvrA = assay: Back mutation test (genotoxicity in bacteria), E. coli strain; conditions: compared with negative control
Method: In order to evaluate genotoxicity in bacteria, a back mutation test was performed using histidine-requiring salmonella typhimurium strains (TA 100, TA 1535, TA 98, and TA 1537) and an E. coli strain (E. coli WP2 uvrA). As a result, a positive control has a substantially greater colony number than a negative control. […] Accordingly, it was confirmed that the ginger extract and shogaol all had stability in the genotoxicity test.

In the case of `CCCCC/C=C/C(=O)CCc1ccc(O)c(OC)c1` [shogaol, (E)-1-(4-hydroxy-3-methoxyphenyl)dec-4-en-3-one], the “secretion amount of a nerve growth factor” value (shortened to “secretion amount”) (C6 cells; 0.1 μM) is reported as 105.46±7.27 % of a control, the “secretion amount” value (C6 cells; 1 μM) is reported as 112.72±3.67 % of a control and the “secretion amount” value (C6 cells; 5 μM) is reported as 112.97±4.97 % of a control. For the same compound, the “secretion amount” value (C6 cells; 10 μM) was 119.44±5.18 % of a control, the “secretion amount” value (C6 cells; 20 μM) was 124.81±5.61 % of a control and the “growth of neurite of the PC12 cells” value (PC12 cells) was “increased”. For the same compound, the body weight (SD rats) was “weight change with respect to a test material did not occur”, the general symptom (SD rats) was “abnormal symptoms with respect to a test material were not found” and the “colony number (back mutation)” value (E. coli WP2 uvrA) was “the colony number was not increased”.
